Data set [1] has as its system C3 expression. Particulars: rat, in vivo; cited from earlier work.
Data set [2] has as its system progesterone receptor (PR) expression. Particulars: rat, in vivo; cited from earlier work.
The test system of data set [3] is estrogen or other hormone receptors. To be noted: cited from earlier work.
Data set [4] has as its system male mice. Nature of the data set: Subthreshold social defeat stress followed by female urine sniffing test (anhedonia). Particulars: chronic treatment (silastic implant or minipump); orchiectomized male mice + SSDS. The format is in vivo, mouse. On the procedure: (§1) Subthreshold social defeat stress: Retired CD1 breeders are singly housed and used as aggressors. Experimental mice are introduced to the home cage of an aggressor for 2 min to initiate the physical attack phase. Afterward, mice are transferred and housed on the opposite side of the aggressor, in the same cage separated by a perforated Plexiglass divider for 15 mins in order to maintain sensory contact. This process is repeated 3 times over a period of ~50 min.
Female Urine Preference Test: is performed 24 hours after the social interaction test as using previously described methods. The amount of time mice spent interacting with a cotton-tipped applicator soaked in either fresh male or female mouse urine during a total of 3 minutes is analyzed by an experimenter blind to the experimental groups.
(§2) For the chronic administration paradigms, silastic tubes (1.02 mm inner diameter×2.16 mm outer diameter) were filled with testosterone (10 mm) or 17β-Estradiol (E2; 1,3 and 10 mm; Sigma-Aldrich, St. Louis, MO, USA). Silastic implants were primed in 0.9% saline at 37° C. overnight prior to their subcutaneous use. Letrozole (1 mg/kg/day; Sigma-Aldrich, St. Louis, MO, USA) was dissolved in propylene glycol (MP Biomedicals, Santa Ana, CA, USA) and administered through ALZET minipumps (Model 1002, 0.25 μl/hour, 14 days; Cupertino, CA, USA). DHED (synthesized using previously described methods) was dissolved in 0.9% saline and administered through ALZET minipumps (Model 1002, 0.25 μl/hour, 14 days; Cupertino, CA, USA) at a dose of […]. Flutamide was administered through 1.5 mg slow-release subcutaneous pellets (Innovative Research of America, Sarasota, FL, USA). For acute administration, 17β-Estradiol (E2; 10 and […]) was dissolved in sesame oil (4 ml/kg, s.c.; Sigma-Aldrich, St. Louis, MO, USA).
(§3) Retired CD1 breeders were singly housed and used as aggressors. Two days prior to the start of the experiment, experimental mice were also singly housed. The stress procedure was performed using previously described methods. Briefly, experimental mice were introduced to the home cage of an aggressor for 2 min to initiate the physical attack phase. Afterward, mice were transferred and housed on the opposite side of the aggressor, in the same cage separated by a perforated Plexiglass divider for 15 mins in order to maintain sensory contact. This process was repeated 3 times over a period of ~50 min. Following the completion of the third cycle, mice were placed back in their home cages.
(§4) Acute E2 was administered 45 min prior to the initiation of stress or 5 min after the completion of stress. For the optogenetic stimulation, ChR2 and YFP-injected mice received a 4 Hz, 5 ms pulse width, 10-15 mW 470 nm light stimulation for 45 min prior to the initiation of stress. This stimulation paradigm was shown previously to increase synaptic transmission. The optogenetic set up consisted of an LED driver paired with a fiber-coupled LED light source attached to a bifurcated optogenetic path cable (400 μm, 0.49 NA; ThorLabs, Newton NJ, USA).
FUST procedure was performed 24 hours after the social interaction test and 48 hours after stress. FUST was performed using previously described methods. The amount of time mice spent interacting with a cotton-tipped applicator soaked in either fresh male or female mouse urine during a total of 3 minutes was analyzed by an experimenter blind to the experimental groups.

The subject of data set [5] is male mice. In words: Subthreshold social defeat stress (SSDS) followed by social interaction test. Type of data set: in vivo, mouse. Particulars: chronic treatment (silastic implant or minipump); orchiectomized male mice + SSDS. On the procedure: as §1
(§5) Social Interaction: Mice are placed in a rectangular box (40 cm length×30 cm width×35 cm height; Stoelting, IL) divided into three compartments (two equal-sized end-chambers and a middle chamber) for five minute habituation phase (10-15 lux). After the habituation phase, two small wire cages are introduced into the two end chambers, one containing an unfamiliar, non-aggressive CD1 mouse and the other remaining empty. The amount of time mice spent sniffing each cage during the five-min test is assessed using CleverSys tracking software (CleverSys, Inc, Reston VA, USA).
as §2, §3, §4
as §5, with “Social interaction was performed 24 hours following subthreshold social defeat or inescapable foot-shock stress. For the habituation phase, mice were” for “Social Interaction: Mice are”, “five minutes” for “five minute habituation phase”, “cages were” for “cages are”, “test was” for “test is”

Data set [6] is described as follows: in vivo. Particulars: male, C57BL/6J, mouse. An excerpt: Although these findings support a critical role for E2, and not testosterone itself, as the biologically active hormone mediating stress susceptibility in hypogonadal male mice, E2 replacement therapy cannot be considered as a viable treatment in human male veteran populations due to its peripheral side effects, including gynecomastia and erectile dysfunction. However, isolating the effects of E2 to the central nervous system would provide a viable therapy. […] As a next step in advancing this treatment, the oral bioavailability of DHED was assessed, comparing oral versus intravenous delivery routes.
Pharmacokinetic (PK) assessment of prodrugs. […] Generally, this PK study and analysis proceeds similarly to previous studies aimed at assessing the oral bioavailability of (2R,6R)-HNK. […] PK is performed using tandem liquid chromatography-mass spectrometry (LC-MS/MS) for quantification. […] Statistical significance is calculated using the unpaired t-test or Mann-Whitney U test for comparing AUC values. […] E2 levels are measured with liquid chromatography tandem mass spectrometry (LC-MS/MS) using standard methods. […] If levels of E2 are too low to be quantified via this measure, and to distinguish naturally-produced from DHED prodrug-produced E2, E2 levels can be quantitated at the femtomole level utilizing deuterium-labelled E2 standards and triple quadrupole mass spectrometry.

Data set [7] deals with rodents. To be noted: high doses administered orally to rodents; cited from earlier work.
A short description of data set [8]: Body, testis and seminal vesicle weights after hormonal treatments. The format is in vivo, mouse. As to the method:
as §2
Subcutaneous implantations were performed during the same time as the orchiectomies. The surgical area was thoroughly cleaned with Betadine solution (10% povidone-iodine surgical scrub) followed by 70% ethanol. A small, approximately 1-cm incision was made between the scapulae using a pair of small sterile surgical scissors. Hemostats were then inserted and spread laterally to the incision to create a cavity in the subcutaneous space in which ALZET mini-osmotic pumps or silastic implants were inserted for continuous drug/vehicle delivery. The skin was closed with suturing.

Data set [9] has as its system galanin expression. To be noted: rat, in vivo; cited from earlier work.

Results on one compound are retold here after patent US20260248809A1, “ESTRADIOL PRODRUGS AND METHODS OF USE THEREOF” (UNIVERSITY OF MARYLAND, BALTIMORE, priority 2022, published 2026).

SMILES strings stand for the structures. “Also recorded” adds a separate entry of the source. Bounds are passed on as bounds.

Broadly, the bioavailability is dose-corrected exposure relative to a reference, in per cent. Low values mean poor availability, high ones good availability.

With `C[C@]12CC[C@H]3[C@@H](CCC4=CC(=O)C=C[C@@]43O)[C@@H]1CC[C@@H]2O` [DHED, 10β,17β-dihydroxyestra-1,4-dien-3-one], the “uterus C3 expression” value in data set [1] is “does not change”. In addition, the “medial preoptic area PR expression” value in data set [2] was “increases medial preoptic area PR expression”. Besides, the “effects on estrogen or other hormone receptors throughout the body” value in [3] is “no effects on estrogen or other hormone receptors”. In [4], the stress-induced anhedonia result was “reversed the social interaction and hedonic deficits”. In addition, the “stress-induced social interaction deficits” value in data set [5] was “reversed the social interaction and hedonic deficits”. The compound further came in with a bioavailability in data set [6] (oral bioavailability measured in brain) of under 2%. Also, the bioavailability in data set [6] (oral bioavailability measured in plasma) turned out to be 10%. In data set [7], the “efficacy in models of hot flushes” value is “E2-like efficacy”. Also, in data set [8] (chronic treatment), the body weight result is reported as “did not increase; also recorded: no difference” and the seminal vesicle weight entry is “did not increase; also recorded: no difference”. The “relative seminal vesicle weights” value in [8] (s.c. treatment, compared to vehicle (saline) control) is reported as “unaffected”. Moreover, the pituitary galanin expression entry in data set [9] is listed as “does not change”.
